Reference: ChEMBL document CHEMBL6109053, “Aspirin-based PROTACs as COX-2 degraders for anti-inflammation” (Bioorg Med Chem, 2025)
Calls of active or inactive are those of the source. No cut-off for these calls is given here.

Experiments:
[1] = target: T1, Prostaglandin G/H synthase 2 (Homo sapiens, UniProt P35354); test: Inhibition of human recombinant COX-2 using S0168-2 as substrate preincubated for 10 mins followed by substrate addition and measured after 10 mins by microplate reader analysis
T1 sequence (P35354 whole entry): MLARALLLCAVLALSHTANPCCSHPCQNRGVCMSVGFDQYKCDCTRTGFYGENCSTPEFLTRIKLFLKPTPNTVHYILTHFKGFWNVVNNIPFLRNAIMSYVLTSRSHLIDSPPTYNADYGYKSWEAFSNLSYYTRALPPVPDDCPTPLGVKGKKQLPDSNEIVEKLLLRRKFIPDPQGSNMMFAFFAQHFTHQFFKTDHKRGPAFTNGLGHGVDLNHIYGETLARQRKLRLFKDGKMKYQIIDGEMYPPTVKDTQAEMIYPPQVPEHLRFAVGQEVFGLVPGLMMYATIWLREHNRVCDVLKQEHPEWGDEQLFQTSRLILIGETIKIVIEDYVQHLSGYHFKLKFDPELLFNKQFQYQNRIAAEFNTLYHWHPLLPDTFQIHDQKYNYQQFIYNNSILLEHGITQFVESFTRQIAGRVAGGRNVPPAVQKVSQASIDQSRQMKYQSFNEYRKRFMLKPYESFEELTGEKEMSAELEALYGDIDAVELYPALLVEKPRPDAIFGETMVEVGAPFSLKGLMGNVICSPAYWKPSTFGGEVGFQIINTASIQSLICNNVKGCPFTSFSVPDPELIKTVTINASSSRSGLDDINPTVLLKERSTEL

RAW264.7 [2] = test: Cytotoxicity against mouse RAW264.7 cells at 20 uM incubated for 24 hrs by CCK-8 assay; assay type: toxicity, cell-based; details: raw264.7, 24 h
RAW264.7 [3] = test: PROTAC activity at COX-2/VHL in mouse RAW264.7 cells assessed as downregulation of COX2 expression measured after 24 hrs by Western blot analysis; assay type: cell-based; details: dose 5-20 µM
RAW264.7 [4] = test: Anti-inflammatory activity in LPS-induced mouse RAW264.7 cells; assay type: functional, cell-based
[5] = target: Protein cereblon/Prostaglandin G/H synthase 2 (Mus musculus) (UniProt Q05769+Q8C7D2); test: PROTAC activity at COX-2/CRBN in mouse RAW264.7 cells assessed as downregulation of COX2 expression measured after 24 hrs by Western blot analysis; assay type: cell-based; details: dose 5-20 µM
Chain of Protein cereblon/Prostaglandin G/H synthase 2 (Mus musculus) (Q05769 whole entry, looked up): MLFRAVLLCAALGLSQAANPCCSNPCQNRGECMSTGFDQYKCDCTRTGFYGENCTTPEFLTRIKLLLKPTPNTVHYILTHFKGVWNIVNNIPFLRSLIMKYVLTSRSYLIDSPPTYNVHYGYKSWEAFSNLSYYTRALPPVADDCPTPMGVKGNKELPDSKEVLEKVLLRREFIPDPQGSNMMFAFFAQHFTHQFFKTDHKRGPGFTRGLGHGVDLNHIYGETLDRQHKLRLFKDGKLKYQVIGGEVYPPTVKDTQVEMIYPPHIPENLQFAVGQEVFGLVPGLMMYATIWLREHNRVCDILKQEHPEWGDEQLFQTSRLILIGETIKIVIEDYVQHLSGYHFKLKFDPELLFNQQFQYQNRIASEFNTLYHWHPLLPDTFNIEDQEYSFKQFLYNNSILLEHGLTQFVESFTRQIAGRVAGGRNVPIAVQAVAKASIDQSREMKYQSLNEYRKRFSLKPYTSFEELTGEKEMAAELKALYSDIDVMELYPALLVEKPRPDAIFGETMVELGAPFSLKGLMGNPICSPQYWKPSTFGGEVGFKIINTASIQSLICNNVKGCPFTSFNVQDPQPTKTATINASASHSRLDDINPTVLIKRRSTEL
Chain of Protein cereblon/Prostaglandin G/H synthase 2 (Mus musculus) (Q8C7D2 whole entry, looked up): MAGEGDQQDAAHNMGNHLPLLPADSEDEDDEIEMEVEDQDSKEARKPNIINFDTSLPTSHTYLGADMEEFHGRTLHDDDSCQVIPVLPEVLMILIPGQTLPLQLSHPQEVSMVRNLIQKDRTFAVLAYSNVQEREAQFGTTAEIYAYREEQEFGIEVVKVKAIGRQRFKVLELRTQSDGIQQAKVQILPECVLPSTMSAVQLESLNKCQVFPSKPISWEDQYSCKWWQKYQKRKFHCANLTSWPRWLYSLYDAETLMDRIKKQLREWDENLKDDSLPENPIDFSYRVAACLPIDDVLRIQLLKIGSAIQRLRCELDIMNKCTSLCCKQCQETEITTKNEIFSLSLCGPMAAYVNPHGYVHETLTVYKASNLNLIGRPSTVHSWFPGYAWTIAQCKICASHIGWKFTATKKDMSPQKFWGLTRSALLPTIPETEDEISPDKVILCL

| IC50 [1] [µM] | Activity [5] | Compound | Activity (RAW264.7 [2]) | Activity (RAW264.7 [3]) | Activity (RAW264.7 [4]) |
| --- | --- | --- | --- | --- | --- |
| 323 |  | Cc1ncsc1-c1ccc([C@@H](C)NC(=O)[C@@H]2C[C@@H](O)CN2C(=O)[C@@H](NC(=O)CCCCn2cc(CCC(=O)Oc3ccccc3C(=O)O)nn2)C(C)(C)C)cc1 | Non-toxic | Dose-dependent-effect | Active |
|  | Dose-dependent-effect | O=C1CCC(N2C(=O)c3cccc(NC4CCC(NC(=O)CCCCn5cc(CCC(=O)Oc6ccccc6C(=O)O)nn5)CC4)c3C2=O)C(=O)N1 (configuration not stated) | Non-toxic |  | Active |
